Results from patent publication US4315014A, “Antibacterial amide compounds and pharmaceutical composition containing the same” (Warner-Lambert Company, priority 1980, dated 1982).
In brackets after ≈: the same amount, converted by molar mass.

Assays:
Assay type in all cases: cell-based
Klebs. pneu. = test: Minimal Inhibitory Concentration, Klebs. pneu.
Serr. marces. = test: Minimal Inhibitory Concentration, Serr. marces.
Staph. aureus S18713 = test: Minimal Inhibitory Concentration, Staph. aureus S18713; conditions: Staphylococcus aureus
Entero. cloacae = test: Minimal Inhibitory Concentration, Entero. cloacae; conditions: Enterobacter cloacae
[1] = system: Pseudomonas aeruginosa #28; test: Minimal Inhibitory Concentration, Pseudomonas aeruginosa #28

Structure (SMILES)	MIC (Klebs. pneu.) [µg/mL]	MIC (Serr. marces.) [µg/mL]	MIC (Staph. aureus S18713) [µg/mL]	MIC (Entero. cloacae) [µg/mL]	MIC [1] [µg/mL]
CC1(C)S[C@@H]2[C@H](NC(=O)[C@H](NC(=O)c3ccc(-c4ccc(NS(C)(=O)=O)cc4)[nH]c3=O)c3ccc(O)cc3)C(=O)N2[C@H]1C(=O)O [Example 3]	3.1 (≈ 4.73 µM)	100 (≈ 153 µM)	100 (≈ 153 µM)	3.1 (≈ 4.73 µM)	1.6 (≈ 2.44 µM)
CC1(C)S[C@@H]2[C@H](NC(=O)[C@H](NC(=O)c3ccc(-c4ccc(NS(=O)(=O)C(F)(F)F)cc4)[nH]c3=O)c3ccc(O)cc3)C(=O)N2[C@H]1C(=O)O [Example 6, N[6-[4-(Trifluoromethylsulfonylamino)phenyl]-1,2-dihydro-2-oxonicotinoyl]amoxicillin]	25 (≈ 35.2 µM)	50 (≈ 70.5 µM)	25 (≈ 35.2 µM)	6.3 (≈ 8.88 µM)	12.5 (≈ 17.6 µM)
CC1(C)S[C@@H]2[C@H](NC(=O)[C@H](NC(=O)c3ccc(-c4ccc(NS(=O)(=O)c5cccnc5)cc4)[nH]c3=O)c3ccccc3)C(=O)N2[C@H]1C(=O)O [Example 9, N-[6-[4-(3-pyridinylsulfonylamino)phenyl]-1,2-dihydro-2-oxonicotinoyl]ampicillin]	6.3 (≈ 8.96 µM)	100 (≈ 142 µM)	100 (≈ 142 µM)	12.5 (≈ 17.8 µM)	12.5 (≈ 17.8 µM)
CC1(C)S[C@@H]2[C@H](NC(=O)[C@H](NC(=O)c3ccc(-c4cccc(NS(=O)(=O)c5cccnc5)c4)[nH]c3=O)c3ccccc3)C(=O)N2[C@H]1C(=O)O [Example 10, N-[6-[3-(3-pyridinylsulfonylamino)phenyl]-1,2-dihydro-2-oxonicotinoyl]ampicillin]	6.3 (≈ 8.96 µM)	100 (≈ 142 µM)	> 200	12.5 (≈ 17.8 µM)	12.5 (≈ 17.8 µM)

Other lines, results leading:

MIC (Klebs. pneu.) [µg/mL]	MIC (Serr. marces.) [µg/mL]	MIC (Staph. aureus S18713) [µg/mL]	MIC (Entero. cloacae) [µg/mL]	MIC [1] [µg/mL]	Structure (SMILES)
1.6 (≈ 2.5 µM)	25 (≈ 39.1 µM)	> 200	6.3 (≈ 9.85 µM)	12.5 (≈ 19.5 µM)	CC1(C)S[C@@H]2[C@H](NC(=O)[C@H](NC(=O)c3ccc(-c4cccc(NS(C)(=O)=O)c4)[nH]c3=O)c3ccccc3)C(=O)N2[C@H]1C(=O)O [Example 1, N-[6-[3-(Methylsulfonylamino)phenyl]-1,2-dihydro-2-oxonicotinoyl]ampicillin]
3.1 (≈ 4.85 µM)	50 (≈ 78.2 µM)	100 (≈ 156 µM)	6.3 (≈ 9.85 µM)	3.1 (≈ 4.85 µM)	CC1(C)S[C@@H]2[C@H](NC(=O)[C@H](NC(=O)c3ccc(-c4ccc(NS(C)(=O)=O)cc4)[nH]c3=O)c3ccccc3)C(=O)N2[C@H]1C(=O)O [Example 2, N-[6-[4-(Methylsulfonylamino)phenyl]-1,2-dihydro-2-oxonicotinoyl]ampicillin]
3.1 (≈ 4.64 µM)	50 (≈ 74.9 µM)	100 (≈ 150 µM)	6.3 (≈ 9.43 µM)	3.1 (≈ 4.64 µM)	CCCS(=O)(=O)Nc1ccc(-c2ccc(C(=O)N[C@@H](C(=O)N[C@@H]3C(=O)N4[C@@H]3SC(C)(C)[C@@H]4C(=O)O)c3ccccc3)c(=O)[nH]2)cc1 [Example 4, N-[6-[4-(Propylsulfonylamino)phenyl]-1,2-dihydro-2-oxonictinoyl]ampicillin]
3.1 (≈ 4.47 µM)	200 (≈ 288 µM)	200 (≈ 288 µM)	6.3 (≈ 9.08 µM)	6.3 (≈ 9.08 µM)	CC1(C)S[C@@H]2[C@H](NC(=O)[C@H](NC(=O)c3ccc(-c4ccc(NS(=O)(=O)C(F)(F)F)cc4)[nH]c3=O)c3ccccc3)C(=O)N2[C@H]1C(=O)O [Example 5, N-[6-[4-(Trifluoromethylsulfonylamino)phenyl]-1,2-dihydro-2-oxonicotinoyl]ampicillin]
3.1 (≈ 4.27 µM)	100 (≈ 138 µM)	100 (≈ 138 µM)	6.3 (≈ 8.68 µM)	6.3 (≈ 8.68 µM)	CC(=O)OCCCS(=O)(=O)Nc1ccc(-c2ccc(C(=O)N[C@@H](C(=O)N[C@@H]3C(=O)N4[C@@H]3SC(C)(C)[C@@H]4C(=O)O)c3ccccc3)c(=O)[nH]2)cc1 [Example 7, N-[6-[4-[3-(acetyloxy)propylsulfonylamino]phenyl]-1,2-dihydro-2-oxonicotinoyl]ampicillin]
3.1 (≈ 4.24 µM)	100 (≈ 137 µM)	100 (≈ 137 µM)	6.3 (≈ 8.62 µM)	6.3 (≈ 8.62 µM)	CC1(C)S[C@@H]2[C@H](NC(=O)[C@H](NC(=O)c3ccc(-c4ccc(NS(=O)(=O)CCc5ccncc5)cc4)[nH]c3=O)c3ccccc3)C(=O)N2[C@H]1C(=O)O [Example 8]
